Laboratory results from PMC6044636 (ACS Omega, 2016).

Target: A2AR (Homo sapiens, UniProt P29274)
Type: binding

A2AR, sequence (P29274 whole entry): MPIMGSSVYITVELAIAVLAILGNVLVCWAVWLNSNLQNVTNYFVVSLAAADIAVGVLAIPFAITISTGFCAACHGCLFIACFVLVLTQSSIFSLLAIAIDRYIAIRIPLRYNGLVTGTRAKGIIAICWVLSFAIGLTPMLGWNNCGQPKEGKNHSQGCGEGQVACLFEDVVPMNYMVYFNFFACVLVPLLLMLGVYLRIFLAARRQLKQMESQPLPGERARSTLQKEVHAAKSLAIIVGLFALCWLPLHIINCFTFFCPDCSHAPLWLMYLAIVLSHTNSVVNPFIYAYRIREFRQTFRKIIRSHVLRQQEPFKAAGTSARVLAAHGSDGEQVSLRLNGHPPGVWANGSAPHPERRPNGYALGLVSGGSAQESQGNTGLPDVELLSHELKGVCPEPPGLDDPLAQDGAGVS

Ki: 1.2 nM
SMILES: Cn1c(-n2nccn2)nc2c(N)nc(CCC3CCCCC3)nc21 [Compound 8, 2-(2-Cyclohexylethyl)-9-methyl-8-(2H-1,2,3-triazol-2-yl)-9H-purin-6-amine]
